Results: US8063221B2, “Aminoquinolones as GSK-3 inhibitors” (Kyorin Pharmaceutical Co., Ltd., priority 2006, dated 2011)
≈ marks a conversion by molar mass, not a printed value. Read-outs that look alike come from different tables or passages of the source.

Assays:
[1] = tested on: E. coli, ATCC8739; experiment: Antibacterial activity (MIC), E. coli; assay type: cell-based; conditions: Escherichia coli
Source text: (§1) As used herein, a minimum inhibitory concentration (MIC) for bacterial growth assay is the lowest level of a compound needed to cause an inhibition to bacterial growth in culture medium. In certain embodiments, the antibacterial activity of compounds herein, measured as MIC.
(§2) In certain embodiments, GSK3 inhibitors provided herein are substantially free of antibacterial activity or having very low antibacterial activity. The antibacterial activity can be measured by methods known in the art by estimating a minimum inhibitory concentration (MIC) for test compounds. A MIC is the lowest level of a compound needed to cause an inhibition to bacterial growth in a culture medium. […] (Clinical and Laboratory Standards Institute. Methods for Dilution Antimicrobial Susceptibility Tests for Bacteria That Grow Aerobically; Approved Standard-Sixth Edition: CLSI document […]. CLSI, Wayne, Pa. (2003))
(§3) Antibacterial activity for E. coli, ATCC8739 andS. aureus Smith expressed as MIC (μM) is provided as follows: […]

[2] = tested on: S. aureus Smith; experiment: Antibacterial activity (MIC), S. aureus; assay type: cell-based; conditions: Staphylococcus aureus
Source text: as §1, §2, §3

[3] = biological target: T1, recombinant full-length human GSK3β (Homo sapiens, UniProt P49841); experiment: Luciferase-coupled cell-free GSK3β kinase assay; assay type: biochemical
T1 construct: recombinant full-length human GSK3β (Upstate); purchased Upstate
T1 sequence (P49841 whole entry): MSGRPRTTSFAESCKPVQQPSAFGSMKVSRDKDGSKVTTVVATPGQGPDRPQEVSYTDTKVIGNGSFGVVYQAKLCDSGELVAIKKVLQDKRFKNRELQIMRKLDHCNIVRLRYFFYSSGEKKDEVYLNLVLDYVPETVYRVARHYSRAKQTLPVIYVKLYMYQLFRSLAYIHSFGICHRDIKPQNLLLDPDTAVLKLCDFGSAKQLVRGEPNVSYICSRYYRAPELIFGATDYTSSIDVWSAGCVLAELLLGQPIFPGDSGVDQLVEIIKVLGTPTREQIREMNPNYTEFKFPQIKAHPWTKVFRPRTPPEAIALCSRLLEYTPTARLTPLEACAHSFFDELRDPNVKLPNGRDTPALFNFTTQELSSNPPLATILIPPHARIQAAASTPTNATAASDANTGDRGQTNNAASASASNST
Experimental: For compounds in Tables 1 and 2, IC50 (μM) for GSK3β enzyme in cell free assay is provided as follows:
Luciferase-Coupled Protein Kinase Assays
All coupled-luciferase assays are performed by using a brief incubation with firefly luciferase (Promega) after completion of the kinase assay. KinaseGlo Plus is used for reading kinase reactions with ATP>10 μM, KinaseGlo for ATP <10 μM. The assay volume in a 384-well plate for the kinase reaction is 30 microliters.
10-25 ng of recombinant full-length human GSK3β (Upstate) is incubated in the presence or absence of compound at varying concentrations for 1 hour at 30 degrees Celsius in 20 mM MOPS, pH 7.0, 10 mM magnesium acetate, 0.2 mM EDTA, 2 mM EGTA, 30 mM magnesium chloride, 62.5 μM phospho-glycogen synthase peptide-2, 5 μM ATP, 10 mM β-glycerol phosphate, 1 mM sodium orthovanadate and 1 mM dithiothreitol. Proceed to KinaseGlo luciferase reaction (see below).
Following the completion of the kinase reaction an equal volume of KinaseGlo or KinaseGlo Plus luciferase reagent (Promega) is added and the luminescence read using a luminescence plate reader within 5-10 minutes. Compound activity is expressed as % inhibition relative to maximal inhibition observed at the maximal dose and IC50 values then calculated using curve fitting software (GraphPad Prizm).

[4] = ATCC8739, Table 2, E. coli ATCC8739, read-out: Antimicrobial MIC [μM] E. Coli
[5] = Table 2, S. aureus Smith, read-out: Antimicrobial MIC [μM] S. aureus
[6] = ATCC8739, read-out: Antibacterial MIC (μM) E.Coli
[7] = read-out: Antibacterial MIC (μM) S. aureus Smith
[8] = ATCC8739, Table 1, E. coli ATCC8739, read-out: Antibacterial MIC (μM) E.Coli
[9] = Table 1, read-out: Antibacterial MIC (μM) S. aureus Smith

C[C@H]1COc2c(NCCCn3ccnc3)c(F)c(N)c3c(=O)c(C(=O)O)cn1c23 [compound 20]
MIC [1, 4]: 10 to 50 µM (≈ 4.01 to 20.1 µg/mL) | MIC [2, 5]: 0.5 to 10 µM (≈ 0.201 to 4.01 µg/mL) | IC50 ([3]; Table 2): 0.1 to 0.5 µM

COc1c(NCCCn2cnc3ccccc32)c(F)c(N)c2c(=O)c(C(=O)O)cn(C3CC3)c12 [compound 83]
MIC [1, 6]: 10 to 50 µM (≈ 4.65 to 23.3 µg/mL) | MIC [2, 7]: 0.5 to 10 µM (≈ 0.233 to 4.65 µg/mL) | IC50 ([3]; Table 1): < 0.1 µM

Nc1c(F)c(NCCNc2ccccn2)c2c3c1c(=O)c(C(=O)O)cn3[C@@H](c1ccccc1)CO2 [Example 124]
MIC [1, 4]: 10 to 50 µM (≈ 4.75 to 23.8 µg/mL) | MIC [2, 5]: 10 to 50 µM (≈ 4.75 to 23.8 µg/mL) | IC50 ([3]; Table 2): 0.1 to 0.5 µM

Nc1ccc(CCNc2c(F)c(N)c3c(=O)ccn(C4CC4)c3c2F)cc1 [compound 12]
MIC [1, 8]: > 50 µM | MIC [2, 9]: 10 to 50 µM (≈ 3.7 to 18.5 µg/mL) | IC50 ([3]; Table 1): 0.5 to 1 µM

Nc1c(F)c(NCCCCc2ccccc2)c(F)c2c1c(=O)ccn2C1CC1 [compound 57]
MIC [1, 8]: 10 to 50 µM (≈ 3.83 to 19.2 µg/mL) | MIC [2, 9]: 10 to 50 µM (≈ 3.83 to 19.2 µg/mL) | IC50 ([3]; Table 1): 0.5 to 1 µM

Nc1c(F)c(NCCNc2ccccn2)c(F)c2c1c(=O)c(C(=O)O)cn2C1CC1 [compound 7]
MIC [1, 8]: 0.5 to 10 µM (≈ 0.208 to 4.15 µg/mL) | MIC [2, 9]: 0.5 to 10 µM (≈ 0.208 to 4.15 µg/mL) | IC50 ([3]; Table 1): 0.1 to 0.5 µM

CC1COc2c(NCCCN3CCCC3=O)c(F)c(N)c3c(=O)c(C(=O)O)cn1c23 (centres unmarked) [compound 5]
MIC [1, 4]: > 50 µM | MIC [2, 5]: 0.5 to 10 µM (≈ 0.209 to 4.18 µg/mL) | IC50 ([3]; Table 2): < 0.1 µM

CC1(C)COc2c(NCCCn3cnc4ccccc43)c(F)c(N)c3c(=O)c(C(=O)O)cn1c23 [compound 37]
MIC [1, 4]: 0.5 to 10 µM (≈ 0.233 to 4.65 µg/mL) | MIC [2, 5]: 0.5 to 10 µM (≈ 0.233 to 4.65 µg/mL) | IC50 ([3]; Table 2): < 0.1 µM

Nc1c(F)c(NCCCn2ccnc2)c(F)c2c1c(=O)ccn2C1CC1 [compound 26]
MIC [1, 8]: > 50 µM | MIC [2, 9]: > 50 µM | IC50 ([3]; Table 1): 0.1 to 0.5 µM

CC(C)C[C@H]1COc2c(NCCCc3ccccc3)c(F)c(N)c3c(=O)c(C(=O)O)cn1c23 [compound 50]
MIC [1, 4]: 10 to 50 µM (≈ 4.54 to 22.7 µg/mL) | MIC [2, 5]: 10 to 50 µM (≈ 4.54 to 22.7 µg/mL) | IC50 ([3]; Table 2): < 0.1 µM

C[C@H]1COc2c(NCCCc3ccccc3)c(F)c(N)c3c(=O)c(C(=O)O)cn1c23 [compound 29]
MIC [1, 4]: 10 to 50 µM (≈ 4.11 to 20.6 µg/mL) | IC50 ([3]; Table 2): < 0.1 µM

Nc1c(F)c(NCCNc2cccc3ccccc23)c(F)c2c1c(=O)ccn2CCc1ccccc1 [compound 64]
MIC [1, 8]: 10 to 50 µM (≈ 4.85 to 24.2 µg/mL) | MIC [2, 9]: 10 to 50 µM (≈ 4.85 to 24.2 µg/mL) | IC50 ([3]; Table 1): 0.1 to 0.5 µM

CC1COc2c(NCCCn3cnc4ccccc43)c(F)c(N)c3c(=O)c(C(=O)O)cn1c23 (centres unmarked) [compound 6]
MIC [1, 4]: 10 to 50 µM (≈ 4.51 to 22.6 µg/mL) | MIC [2, 5]: 0.5 to 10 µM (≈ 0.226 to 4.51 µg/mL) | IC50 ([3]; Table 2): < 0.1 µM

Nc1c(F)c(NCCc2ccc(O)cc2)c(F)c2c1c(=O)c(C(=O)O)cn2C1CC1 [compound 16]
MIC [1, 8]: 0.5 to 10 µM (≈ 0.208 to 4.15 µg/mL) | MIC [2, 9]: < 0.5 µM | IC50 ([3]; Table 1): 0.5 to 1 µM

CC(C)OCCCNc1c(F)c(N)c2c(=O)c(C(=O)O)cn(C3CC3)c2c1F [compound 17]
MIC [1, 6]: 0.5 to 10 µM (≈ 0.198 to 3.95 µg/mL) | MIC [2, 7]: 0.5 to 10 µM (≈ 0.198 to 3.95 µg/mL) | IC50 ([3]; Table 1): 0.1 to 0.5 µM

Nc1c(F)c(NCCNc2ccccn2)c(F)c2c1c(=O)c(C(=O)O)cn2CCc1ccccc1 [compound 49]
MIC [1, 6]: 10 to 50 µM (≈ 4.79 to 24 µg/mL) | MIC [2, 7]: 10 to 50 µM (≈ 4.79 to 24 µg/mL) | IC50 ([3]; Table 1): 0.1 to 0.5 µM

CC1(C)COc2c(NCCCN3CCCC3=O)c(F)c(N)c3c(=O)c(C(=O)O)cn1c23 [compound 41]
MIC [1, 4]: > 50 µM | MIC [2, 5]: > 50 µM | IC50 ([3]; Table 2): < 0.1 µM

COc1c(NCCc2ccncc2)c(F)c(N)c2c(=O)c(C(=O)O)cn(C3CCCC3)c12 [compound 80]
MIC [1, 8]: > 50 µM | MIC [2, 9]: 10 to 50 µM (≈ 4.4 to 22 µg/mL) | IC50 ([3]; Table 1): > 1 µM

CC1COc2c(NCCCc3ccccc3)c(F)c(N)c3c(=O)c(C(=O)O)cn1c23 (centres unmarked) [compound 81]
MIC [1, 8]: 10 to 50 µM (≈ 4.11 to 20.6 µg/mL) | MIC [2, 9]: 0.5 to 10 µM (≈ 0.206 to 4.11 µg/mL) | IC50 ([3]; Table 1): < 0.1 µM

CSc1c(F)c(NCCNc2ccccn2)c(F)c2c1c(=O)c(C(=O)O)cn2C1CC1 [Example 128]
MIC [1, 4]: 0.5 to 10 µM (≈ 0.223 to 4.46 µg/mL) | MIC [2, 5]: 0.5 to 10 µM (≈ 0.223 to 4.46 µg/mL)

C[C@H]1COc2c(NCCSc3c[nH]c4ccccc34)c(F)c(N)c3c(=O)c(C(=O)O)cn1c23 [Example 116]
IC50 ([3]; Table 2): < 0.1 µM

N#Cc1ccc(NCCNc2c(F)c(N)c3c(=O)c(C(=O)O)cn(C4CC4)c3c2F)nc1 [compound 37]
IC50 ([3]; Table 1): 0.1 to 0.5 µM

C[C@H]1COc2c(NCCCc3ccccc3)c(F)c(N)c3c(=O)c(C#N)cn1c23 [Example 108]
IC50 ([3]; Table 2): < 0.1 µM

C[C@H]1COc2c(NCCCc3ccc(Cl)cc3)c(F)c(N)c3c(=O)c(C(=O)O)cn1c23 [Example 102]
IC50 ([3]; Table 2): < 0.1 µM
